Laboratory results published in US6737383B1, “Herbicidal oxadiazolidines” (priority 1999, dated 2004).

Columns and labels:
[1] = tested on: soybean; assay: Test B pre/postemergence soybean; format: in vivo, Glycine max
How it was run: (§1)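 Response is a visual 0-to-10 score relative to untreated plants, where 0 means no effect and 10 means complete control, taken twelve to sixteen days after application. Treatments went onto soil at planting and onto foliage of 1- to 4-leaf plants, using a surfactant-containing non-phytotoxic solvent.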

[2] = tested on: wild oat; assay: Test B pre/postemergence wild oat; format: in vivo, Avena fatua
How it was run: as §1

[3] = tested on: wheat; assay: Test B pre/postemergence wheat; format: in vivo, Triticum aestivum
How it was run: as §1

[4] = tested on: bedstraw; assay: Test B pre/postemergence bedstraw; format: in vivo, Galium aparine
How it was run: as §1

[5] = tested on: sugar beet; assay: Test B pre/postemergence sugar beet; format: in vivo, Beta vulgaris
How it was run: as §1

[6] = tested on: blackgrass; assay: Test B pre/postemergence blackgrass; format: in vivo, Alopecurus myosuroides
How it was run: as §1

[7] = tested on: smallflower flatsedge; assay: Test B flood test smallflower flatsedge; format: in vivo, Cyperus difformis
How it was run: (§2)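 Read-out is a visual response score from 0 (no effect) to 10 (complete control), assigned by comparison with untreated controls. Treatment was applied at the 2-leaf stage, and plants stayed in the greenhouse for twelve to sixteen days before scoring.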

[8] = tested on: velvetleaf; assay: Test B pre/postemergence velvetleaf; format: in vivo, Abutilon theophrasti
How it was run: as §1

[9] = tested on: duck salad; assay: Test B flood test duck salad; format: in vivo, Heteranthera limosa
How it was run: as §2

[10] = tested on: rice; assay: Test B flood test rice; format: in vivo, Oryza sativa
How it was run: as §2

[11] = tested on: crabgrass; assay: Test B pre/postemergence crabgrass; format: in vivo, Digitaria sanguinalis
How it was run: as §1

[12] = tested on: purple nutsedge; assay: Test B pre/postemergence purple nutsedge; format: in vivo, Cyperus rotundus
How it was run: as §1

[13] = tested on: surinam grass; assay: Test B pre/postemergence surinam grass; format: in vivo, Brachiaria decumbens
How it was run: as §1

[14] = tested on: rape; assay: Test B pre/postemergence rape; format: in vivo, Brassica napus
How it was run: as §1

[15] = tested on: corn; assay: Test B pre/postemergence corn; format: in vivo, Zea mays
How it was run: as §1

[16] = tested on: pigweed; assay: Test B pre/postemergence pigweed; format: in vivo, Amaranthus retroflexus
How it was run: as §1

[17] = Preemergence, Rate 62 g/ha, scale of 0 to 10 where 0 is no effect and 10 is complete control
[18] = Preemergence, Rate 125 g/ha, 0 is no effect, 10 is complete control
[19] = Preemergence, Rate 250 g/ha, scale 0 to 10, 0 is no effect, 10 is complete control
[20] = Preemergence, Rate 500 g/ha, scale of 0 to 10 where 0 is no effect and 10 is complete control
[21] = Rate 62 g/ha, Postemergence, scale of 0 to 10 where 0 is no effect and 10 is complete control
[22] = Rate 125 g/ha, Postemergence, scale 0 to 10
[23] = Rate 500 g/ha, Postemergence, scale 0 to 10
[24] = Rate 62 g/ha, headed Pre-emergence (flood test species), scale 0 to 10 (0 no effect, 10 complete control)
[25] = Rate 125 g/ha, Pre-emergence, flood test species, scale 0 to 10 where 0 is no effect and 10 is complete control
[26] = Rate 250 g/ha, Pre-emergence, flood-test species, scale 0 to 10, 0 is no effect, 10 is complete control
[27] = Rate 500 g/ha, headed Pre-emergence (flood test species), scale 0 to 10 (0 no effect, 10 complete control)

Cc1ccccc1-n1c(=O)on(C(=O)N(c2ccc(S(C)(=O)=O)cc2)C(C)C)c1=O [Compound 203]
0: Soybean plant response rating [1, 17] | Soybean plant response rating (0 to 10 scale) [1, 18] | Soybean plant response rating [1, 19] | Plant response rating, Soybean [1, 20] | Soybean plant response rating [1, 21] | Soybean plant response rating [1, 22] | Plant response rating (0 to 10; 0 is no effect, 10 is complete control), Soybean ([1]; Rate 250 g/ha, Postemergence) | Soybean plant response rating [1, 23] | Wild oats plant response rating [2, 17] | Wild oats plant response rating [2, 19] | Plant response rating, Wild oats [2, 20] | Wild oats plant response rating [2, 21] | Wild oats plant response rating [2, 22] | Plant response rating (0 to 10; 0 is no effect, 10 is complete control), Wild oats ([2]; Rate 250 g/ha, Postemergence) | Wheat plant response rating [3, 17] | Wheat plant response rating [3, 19] | Plant response rating, Wheat [3, 20] | Wheat plant response rating [3, 21] | Wheat plant response rating [3, 22] | Plant response rating (0 to 10; 0 is no effect, 10 is complete control), Wheat ([3]; Rate 250 g/ha, Postemergence) | Bedstraw plant response rating [4, 17] | Bedstraw plant response rating (0 to 10 scale) [4, 18] | Bedstraw plant response rating [4, 19] | Plant response rating, Bedstraw [4, 20] | Bedstraw plant response rating [4, 21] | Bedstraw plant response rating [4, 22] | Plant response rating (0 to 10; 0 is no effect, 10 is complete control), Bedstraw ([4]; Rate 250 g/ha, Postemergence) | Bedstraw plant response rating [4, 23] | Sugarbeets plant response rating [5, 17] | Sugarbeets plant response rating (0 to 10 scale) [5, 18] | Sugarbeets plant response rating [5, 19] | Plant response rating, Sugarbeets [5, 20] | Sugarbeets plant response rating [5, 21] | Sugarbeets plant response rating [5, 22] | Plant response rating (0 to 10; 0 is no effect, 10 is complete control), Sugarbeets ([5]; Rate 250 g/ha, Postemergence) | Sugarbeets plant response rating [5, 23] | Blackgrass plant response rating [6, 17] | Blackgrass plant response rating (0 to 10 scale) [6, 18] | Blackgrass plant response rating [6, 19] | Plant response rating, Blackgrass [6, 20] | Blackgrass plant response rating [6, 21] | Blackgrass plant response rating [6, 22] | Plant response rating (0 to 10; 0 is no effect, 10 is complete control), Blackgrass ([6]; Rate 250 g/ha, Postemergence) | Blackgrass plant response rating [6, 23] | S. Flatsedge plant response rating [7, 24] | S. Flatsedge plant response rating [7, 25] | S. Flatsedge plant response rating [7, 26] | S. Flatsedge plant response rating ([7]; Rate 500 g/ha, Pre-emergence, flood test species, scale 0 to 10 (0 no effect, 10 complete control)) | Velvetleaf plant response rating [8, 17] | Velvetleaf plant response rating [8, 19] | Plant response rating, Velvetleaf [8, 20] | Velvetleaf plant response rating [8, 21] | Velvetleaf plant response rating [8, 22] | Plant response rating (0 to 10; 0 is no effect, 10 is complete control), Velvetleaf ([8]; Rate 250 g/ha, Postemergence) | Ducksalad plant response rating [9, 24] | Ducksalad plant response rating [9, 25] | Ducksalad plant response rating [9, 26] | Plant response rating, Ducksalad [9, 27] | Rice plant response rating [10, 24] | Rice plant response rating [10, 25] | Rice plant response rating [10, 26] | Plant response rating, Rice [10, 27] | Crabgrass plant response rating [11, 17] | Crabgrass plant response rating (0 to 10 scale) [11, 18] | Crabgrass plant response rating [11, 19] | Plant response rating, Crabgrass [11, 20] | Crabgrass plant response rating [11, 21] | Crabgrass plant response rating [11, 22] | Plant response rating (0 to 10; 0 is no effect, 10 is complete control), Crabgrass ([11]; Rate 250 g/ha, Postemergence) | Crabgrass plant response rating [11, 23] | Nutsedge plant response rating [12, 17] | Nutsedge plant response rating (0 to 10 scale) [12, 18] | Nutsedge plant response rating [12, 19] | Plant response rating, Nutsedge [12, 20] | Nutsedge plant response rating [12, 21] | Nutsedge plant response rating [12, 22] | Plant response rating (0 to 10; 0 is no effect, 10 is complete control), Nutsedge ([12]; Rate 250 g/ha, Postemergence) | Nutsedge plant response rating [12, 23] | B. signalgrass plant response rating [13, 17] | B. signalgrass plant response rating (0 to 10 scale) [13, 18] | B. signalgrass plant response rating [13, 19] | Plant response rating, B. signalgrass [13, 20] | B. signalgrass plant response rating [13, 21] | B. signalgrass plant response rating ([13]; Rate 125 g/ha, Postemergence, scale 0 (no effect) to 10 (complete control)) | Plant response rating, B. signalgrass ([13]; Rate 250 g/ha, Postemergence, scale 0 to 10, 0 is no effect, 10 is complete control) | B. signalgrass plant response rating ([13]; Rate 500 g/ha, Postemergence, scale 0 to 10, 0 no effect, 10 complete control) | Rape plant response rating [14, 17] | Rape plant response rating (0 to 10 scale) [14, 18] | Rape plant response rating [14, 19] | Plant response rating, Rape [14, 20] | Rape plant response rating [14, 21] | Rape plant response rating [14, 22] | Plant response rating (0 to 10; 0 is no effect, 10 is complete control), Rape ([14]; Rate 250 g/ha, Postemergence) | Rape plant response rating [14, 23] | Corn plant response rating [15, 17] | Corn plant response rating (0 to 10 scale) [15, 18] | Corn plant response rating [15, 19] | Plant response rating, Corn [15, 20] | Corn plant response rating [15, 21] | Corn plant response rating [15, 22] | Plant response rating (0 to 10; 0 is no effect, 10 is complete control), Corn ([15]; Rate 250 g/ha, Postemergence) | Corn plant response rating [15, 23] | Redroot pigweed plant response rating [16, 17] | Redroot pigweed plant response rating (0 to 10 scale) [16, 18] | Redroot pigweed plant response rating [16, 19] | Plant response rating, Redroot pigweed [16, 20] | Redroot pigweed plant response rating [16, 21] | Redroot pigweed plant response rating [16, 22] | Plant response rating (0 to 10; 0 is no effect, 10 is complete control), Redroot pigweed ([16]; Rate 250 g/ha, Postemergence) | Redroot pigweed plant response rating [16, 23]
